{"source": "paper PMC8615155", "about": "(Antioxidants, 2021)", "key": {"[1]": {"tested_on": "HCT116 cells", "test": "MTT cell viability HCT116", "type": "cell-based, Human", "conditions": "for IC50: read-out: IC50 values on cancer cell lines", "protocol": "(§1) Human HeLa, A549, HepG2, SH-SY5Y, MCF7 and AGS cells were cultured in DMEM containing 10% FBS, respectively. HCT116 cells were cultured in McCoy’s 5A medium (Procell, Wuhan, China) containing 10% FBS. The cells were cultured in medium containing 100 IU/mL penicillin, 100 µg/mL streptomycin (1% antibiotics) and 25 nM selenite at 37 °C in a humidified incubator with 5% CO2 (Thermo Fisher Scientific, Waltham, MA, USA).\n(§2) MTT assay was used to detect cell viability. In brief, cells were seeded in 96-well plates with 5000 cells per well and allowed to stick overnight. […] After treatment, the cell medium was carefully removed from the cultured cells and added with 100 µL fresh FBS-free medium containing 0.5 mg/mL MTT. The medium was incubated in an incubator for 4 h. Then, the medium was removed, and the formazan crystals formed were dissolved in 100 µL DMSO. The absorbance was measured at 570 nm, and 630 nm was set as the reference. The experiments were repeated four times."}, "[2]": {"tested_on": "AGS cells", "test": "MTT cell viability AGS", "type": "cell-based, Human", "protocol": "as §1, §2"}, "[3]": {"tested_on": "TrxR1", "set-up": "method as in PMID 21262347", "conditions": "cited from earlier work"}, "[4]": {"biological_target": "T1, wild type TrxR1 (Rattus norvegicus, UniProt O89049)", "T1 sequence (O89049 1-499)": "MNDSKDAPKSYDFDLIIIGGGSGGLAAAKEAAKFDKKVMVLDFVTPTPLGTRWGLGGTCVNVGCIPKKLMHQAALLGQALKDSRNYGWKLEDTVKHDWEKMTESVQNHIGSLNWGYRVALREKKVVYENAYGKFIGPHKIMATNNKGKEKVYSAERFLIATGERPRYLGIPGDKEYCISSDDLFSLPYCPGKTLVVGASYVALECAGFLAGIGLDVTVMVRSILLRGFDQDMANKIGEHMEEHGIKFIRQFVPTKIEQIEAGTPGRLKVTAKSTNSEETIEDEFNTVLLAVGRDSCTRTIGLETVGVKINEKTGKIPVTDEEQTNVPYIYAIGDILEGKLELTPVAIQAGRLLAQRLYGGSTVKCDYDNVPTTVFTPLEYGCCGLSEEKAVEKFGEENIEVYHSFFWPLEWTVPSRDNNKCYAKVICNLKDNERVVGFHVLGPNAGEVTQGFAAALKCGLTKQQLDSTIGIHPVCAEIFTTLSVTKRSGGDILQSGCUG", "method": "(§3) All food colorants were dissolved in DMSO to prepare a stock solution. […] 5,5′-dithiobis-2-nitrobenzoic acid (DTNB), 3-(4,5)-dimethylthiahiazo (-z-y1)-3,5-di-phenytetrazoliumromide (MTT) and ROS probe DCFH-DA were purchased from Sigma-Aldrich (St Louis, MI, USA). A 50 mM Tris-HCl containing 2 mM EDTA (pH 7.5) was used in all protein-based experiments, if not stated otherwise.\n(§4) The enzymatic activities of TrxR1 and its various mutants were determined in parallel with DTNB and 9,10-panathrenequinone (9,10 PQ) as substrates [17]. In DTNB reduction assay, the working reaction mixtures contained 10 nM TrxR1, 2.5 mM DTNB and 300 µM NADPH in 50 mM Tris-HCl and 2 mM EDTA, pH 7.5. […] In the 9,10 PQ reduction assay, the working reaction mixtures contained 30 nM TrxR1, 30 µM 9,10 PQ and 200 µM NADPH, followed by NADPH oxidation at 340 nm for 20 min at room temperature, according to the linear region of the decrease curves (assuming ƐNADPH, 340 nm = 6200 M^−1 cm^−1)."}, "[5]": {"biological_target": "T1, wild type TrxR1", "test": "TrxR1 DTNB reduction assay", "method": "as §3, §4"}, "[6]": {"biological_target": "T2, TrxR1 (Rattus norvegicus, UniProt O89049)", "T2 sequence (O89049 1-499)": "T1 sequence (O89049 1-499)", "test": "NADPH oxidase activity of TrxR1 (juglone reduction)", "type": "biochemical", "conditions": "500 µM, 30 min in dark, juglone as substrate", "protocol": "NADPH oxidase activity of TrxR1 was measured by juglone reduction method. The final reaction mixture consisted of 30 nM TrxR1, 30 µM juglone (in DMSO) and 200 µM NADPH."}, "[7]": {"tested_on": "HeLa cells", "test": "MTT cell viability HeLa", "type": "cell-based, Human", "conditions": "read-out: IC50 values on cancer cell lines", "protocol": "as §1, §2"}, "[8]": {"tested_on": "MCF7 cells", "test": "MTT cell viability MCF7", "type": "cell-based, Human", "conditions": "read-out: IC50 values on cancer cell lines", "protocol": "as §1, §2"}, "[9]": {"tested_on": "SH-SY5Y cells", "test": "MTT cell viability SH-SY5Y", "type": "cell-based, Human", "conditions": "48 h, read-out: IC50 values on cancer cell lines", "protocol": "as §1, §2"}, "[10]": {"biological_target": "T3, cellular TrxR in HeLa cells (Homo sapiens, UniProt Q16881)", "T3 construct": "endogenous in cells; host or cells: HeLa", "T3 sequence (Q16881 1-499 isoform Q16881-5)": "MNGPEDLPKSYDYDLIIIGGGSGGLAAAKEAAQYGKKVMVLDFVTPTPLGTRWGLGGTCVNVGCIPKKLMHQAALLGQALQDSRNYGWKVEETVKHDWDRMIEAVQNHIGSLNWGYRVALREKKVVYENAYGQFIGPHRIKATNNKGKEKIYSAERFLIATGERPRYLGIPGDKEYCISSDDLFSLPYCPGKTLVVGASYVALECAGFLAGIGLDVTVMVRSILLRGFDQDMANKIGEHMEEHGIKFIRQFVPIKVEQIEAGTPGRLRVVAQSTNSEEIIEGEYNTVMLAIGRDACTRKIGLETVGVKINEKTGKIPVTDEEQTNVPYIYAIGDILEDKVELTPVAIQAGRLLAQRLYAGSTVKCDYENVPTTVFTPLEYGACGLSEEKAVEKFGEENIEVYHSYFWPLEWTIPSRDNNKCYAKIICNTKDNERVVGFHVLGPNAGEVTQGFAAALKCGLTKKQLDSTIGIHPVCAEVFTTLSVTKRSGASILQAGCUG", "test": "Cellular TrxR activity, end-point Trx-coupled insulin assay", "type": "cell-based", "conditions": "HeLa cells vs untreated controls", "protocol": "The cells were then collected and washed twice with ice-cold PBS. The total cell proteins were extracted with the RIPA buffer on ice for 30 min. The TrxR activities in the cell lysates were measured by the end-point Trx-coupled insulin assay and the protein concentration was determined by BCA protein assay kit (Sangon, Shanghai, China), using bovine serum albumin (BSA) as protein standard."}, "[11]": {"tested_on": "HeLa cells", "test": "ROS generation with DCFH-DA", "type": "cell-based, Human", "conditions": "12 h, up to 50 µM", "protocol": "After removing the medium, 10 µM DCFH-DA was added and incubated at 37 °C in darkness for 30 min. The cells were then observed and photographed using a Leica inverted fluorescence microscopy (Leica, Germany)."}, "[12]": {"tested_on": "HepG2 cells", "test": "MTT cell viability HepG2", "type": "cell-based, Human", "conditions": "read-out: IC50 values on cancer cell lines", "protocol": "as §1, §2"}, "[13]": {"tested_on": "A549 cells", "test": "MTT cell viability A549", "type": "cell-based, Human", "conditions": "read-out: IC50 values on cancer cell lines", "protocol": "as §1, §2"}}, "note": "Read-outs that look alike come from different tables or passages of the source."}
{"compound": "CC(=O)N[C@@H](CS)C(=O)O", "note": "[NAC, N-acetyl-L-cysteine, reference compound]", "values": [{"measurement": "Effect of co-treatment on chlorophyllin cytotoxicity", "setting": "[1]; HCT116, 100 µM or 500 µM NAC, 24 h co-treatment", "value": "protect cell from chlorophyllin"}, {"measurement": "Effect of co-treatment on chlorophyllin cytotoxicity", "setting": "[2]; 100 µM or 500 µM NAC, 24 h co-treatment", "value": "protect cell from chlorophyllin"}]}
{"compound": "C=CC1=C(C)c2cc3[nH]c(cc4nc(cc5[nH]c(cc1n2)c(C)c5CCC(=O)O)C(CCC(=O)O)=C4C)c(C)c3C=C", "note": "[PpIX]", "values": [{"measurement": "Kinact in TrxR1 mediated Trx-coupled insulin reduction", "setting": "[3]", "value": 5, "unit": "M⁻¹ s⁻¹"}, {"measurement": "Ki", "setting": "[3]; read-out: apparent Ki on TrxR1's Trx reduction", "value": 2.7, "unit": "µM"}]}
{"compound": "CC(=O)OC[C@H]1O[C@@H]([S-])[C@H](OC(C)=O)[C@@H](OC(C)=O)[C@@H]1OC(C)=O.CCP(CC)CC.[Au+]", "note": "[auranofin, reference compound]", "values": [{"measurement": "Effect of pre-treatment on sensitivity of HCT116 cells to chlorophyllin", "setting": "[1]; auranofin 2.5 h pre-treatment, then chlorophyllin", "value": "increasing the sensitivity"}]}
{"compound": "CC1=C[C@H](O)CC(C)(C)[C@H]1/C=C/C(C)=C/C=C/C(C)=C/C=C/C=C(C)/C=C/C=C(C)/C=C/C1=C(C)C[C@@H](O)CC1(C)C", "note": "[lutein]", "values": [{"measurement": "Time dependence of TrxR1 inhibition", "setting": "[4]", "value": "time-dependent manner"}, {"measurement": "IC50", "setting": "[5]", "value": 306, "unit": "µM"}, {"measurement": "Inhibition of NADPH oxidation activity of TrxR1", "setting": "[6]", "value": "no inhibition"}]}
{"compound": "Sodium copper chlorophyll [chlorophyllin]", "values": [{"measurement": "IC50", "setting": "[7]; 24 h", "value": "47.9 ± 13.5", "unit": "µM"}, {"measurement": "IC50", "setting": "[7]; 48 h", "value": "10.4 ± 4.3", "unit": "µM"}, {"measurement": "IC50", "setting": "[8]; MCF7, 24 h", "value": "30.1 ± 7.1", "unit": "µM"}, {"measurement": "IC50", "setting": "[8]; MCF7, 48 h", "value": "6.9 ± 1.1", "unit": "µM"}, {"measurement": "IC50", "setting": "[1]; HCT116, 24 h", "value": "43.5 ± 2.6", "unit": "µM"}, {"measurement": "IC50", "setting": "[1]; HCT116, 48 h", "value": "20.2 ± 0.8", "unit": "µM"}, {"measurement": "IC50", "setting": "[9]", "value": "31.7 ± 6.7", "unit": "µM"}, {"measurement": "Inhibition of cellular TrxR1 activity", "setting": "[10]", "value": "remarkable inhibition"}, {"measurement": "Fluorescent signals of ROS probe DCFH-DA", "setting": "[11]", "value": "much higher"}, {"measurement": "IC50", "setting": "[12]; HepG2, 24 h", "value": "36.8 ± 11.2", "unit": "µM"}, {"measurement": "IC50", "setting": "[12]; HepG2, 48 h", "value": "10.2 ± 3", "unit": "µM"}, {"measurement": "IC50", "setting": "[13]; A549, 24 h", "value": "40.7 ± 3.9", "unit": "µM"}, {"measurement": "IC50", "setting": "[13]; A549, 48 h", "value": "10.3 ± 1.4", "unit": "µM"}, {"measurement": "IC50", "setting": "[2]; 48 h, read-out: IC50 values on cancer cell lines", "value": "49.6 ± 24.7", "unit": "µM"}]}
{"compound": "hemin", "values": [{"measurement": "Kinact in TrxR1 mediated Trx-coupled insulin reduction", "setting": "[3]", "value": 4.33, "unit": "M⁻¹ s⁻¹"}]}
